We go through four molecules from patent US10682371B2, “Small molecule conjugates specifically activated in tumor microenvironment for targeting and use thereof” (priority 2014, dated 2020).

One series relates to MDA-MB231 tumor tissue. As to the kind of experiment: Activation efficiency by MDA-MB231 tumor tissue (HPLC). It counts as biochemical. The procedure: At 37 °C, sample compounds were added into 100 μg acidized tumor tissue homogenates in a concentration of 1 mg/ml.
In the experiments, at 37 °C, compounds were added into proteases in 100 μg acidized tumor tissue homogenates in a concentration of 1 mg/ml. […] Meanwhile certain compounds produced in the screening were compared and their activation efficiency in same tissue was analyzed.

Series [1] deals with Human prostate cancer PC-3 cells. Briefly: Tumor treatment in nude mice, PC-3 model (Example 51). It counts as in vivo. The procedure: 1) Human prostate cancer PC-3 cells were purchased from American type culture collection (ATCC) and identified according the specification provided by ATCC. Cells were cultivated in DMEM culture solution containing 10% fetal bovine serum at 37° C. and 5% CO2. The cells were passaged for every three days and cells within the 15th passage were used.
2) Production of tumor. 5×10^6PC-3 cells were subcutaneously injected to the back of the nude mice. Mice were randomly grouped after the tumor reached at least 100 mm^3. Then treatment began and the day on which the treatment began was day 1.
According to the clinical application of D1, D2, D3 and D4, drugs were intravenously injected (IV). […]. The control group was administered by physiological saline. Drugs were administered once weekly for four weeks.

A further series deals with T1, asparagine endopeptidase (Homo sapiens, UniProt Q99538).
T1 sequence (Q99538 26-323 limits assumed): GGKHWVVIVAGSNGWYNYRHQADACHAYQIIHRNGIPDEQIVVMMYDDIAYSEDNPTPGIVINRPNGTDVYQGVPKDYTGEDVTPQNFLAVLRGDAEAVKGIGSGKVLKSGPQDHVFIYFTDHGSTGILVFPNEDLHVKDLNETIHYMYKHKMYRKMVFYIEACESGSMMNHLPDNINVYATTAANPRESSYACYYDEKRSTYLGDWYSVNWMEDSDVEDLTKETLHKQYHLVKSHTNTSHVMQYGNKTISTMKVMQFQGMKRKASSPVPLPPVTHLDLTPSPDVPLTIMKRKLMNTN
The procedure:
Reduction of reactant and increase of product were detected by HPLC, thereby comparing the activation efficiency of these compounds.
When R1 is 2-(2-Methoxyethoxy)Acetyl, and R3 is Ala, activation study and efficacy study were carried out by using compounds having different cleavable linker. The study methods are identical to those in Examples 10, 11 and 12. The in vitro activation efficiency was tested by asparagine endopeptidase and the tumor inhibition rate was tested by using human breast cancer MDA-MB231 model.

A further series concerns Mice. Briefly: Toxicity of Legutaxel injected at tail vein weekly for 3 times, observed over 21 days. It counts as in vivo. The procedure:
Mice were injected with Legutaxel at tail vein weekly for 3 times. […] Therefore, Legutaxel's dose could at least reach 160 mg/kg/day during treatment.

Series [2] has as its system tumor-derived immunosuppressive T cells (T reg: CD4+, CD25+, Foxp3+); CD8 T cells. As to the kind of experiment: Immunological stimulation test in mice receiving tumor treatment (T reg, CD8 T cells). Format: in vivo. From the text:
We further studied the immunological stimulation property of Legutaxel. […] On the contrary, the index for tumor-derived immunosuppressive T cells in treatment group by Legutaxel decreased due to targeted chemotherapy (see panels in FIGS. 3A and 3B).

[3] abbreviates: Table 48, nude mice, PC-3, IV once weekly for four weeks, D1-D4 25 mg/kg, Docetaxel […], Day 10.
Where [4] appears, read: Table 48, nude mice, PC-3, IV once weekly for four weeks, D1-D4 25 mg/kg, Docetaxel […], Day 24.

Entries after “also recorded” stand apart in the source; their conditions may differ. Bounds are passed on as bounds.

On to `COCCOCC(=O)N[C@H](C)C(=O)N[C@H](C)C(=O)N[C@H](CC(N)=O)C(=O)Nc1ccc(COC(=O)OC(C(=O)OC2C[C@@]3(O)[C@@H](OC(=O)c4ccccc4)[C@H]4[C@](C)(C(=O)[C@H](O)C(=C2C)C3(C)C)[C@@H](O)CC2OC[C@]24OC(C)=O)[C@@H](NC(=O)OC(C)(C)C)c2ccccc2)cc1` (stereo partly drawn) [Compound D1, 2-(2-methoxyethoxy) acetyl-L-Ala-L-Ala-L-Asn-4-amino benzyl-Docetaxel], for which the “activation efficiency (%)” value in the series with MDA-MB231 tumor tissue (Table 46, Docetaxel D series and controls) came to 91.5%. In series [1] (setting [3]), the “Size of tumor (mm^3) Day 10” value is given as 86.45 ± 26.42 mm^3 and the “inhibitory rate on tumor Day 10” value came out at 75.0. Also, in series [1] (setting [4]), the “Size of tumor (mm^3) Day 24” value was determined as 143.34 ± 44.42 mm^3 and the “inhibitory rate on tumor Day 24” value stood at 80.5. In series [1] (compared with Docetaxel group and control group), the “Inhibition on tumor growth, in words” value is reported as “greatly improved”.

As to “4-N—(N—(N—(N-(6-maleimido caproyl)-L-alanyl)-L-alanyl)-L-asparaginyl)-amino benzyl alcohol-MMAE-carbamate [Compound S6]”, the “Activation by asparagine endopeptidase, in words” value at asparagine endopeptidase is “cannot be activated; also recorded: not activated”. The Cleaving efficiency at asparagine endopeptidase (different cleavable linkers of MMAE and Doxorubicin, in vitro activation by asparagine endopeptidase) worked out at 25.6%.

Regarding `COCCOCC(=O)N[C@H](C)C(=O)N[C@H](C)C(=O)N[C@H](CC(N)=O)C(=O)Nc1ccc(COC(=O)OC(C(=O)OC2C[C@@]3(O)C(OC(=O)c4ccccc4)[C@@H]4C5(OC(C)=O)COC5C[C@H](O)[C@@]4(C)C(=O)[C@H](OC(C)=O)C(=C2C)C3(C)C)[C@@H](NC(=O)c2ccccc2)c2ccccc2)cc1` (stereo in doubt) [S1′, 2-(2-methoxyethoxy) acetylamino-L-Ala-L-Ala-L-Asn-p-amino-benzyl-paclitaxel], the “Dose that can be reached during treatment” value in the series with Mice (tail vein weekly for 3 times) is recorded as no less than 160 mg/kg/day. Also, the “Death in toxicity experiments” value in the series with Mice (tail vein weekly for 3 times, 140, 150 and 160 mg/kg/day, observed over 21 days) is “no death were observed”. Further, in series [2] (lung cancer treatment model), the “Toxic CD8 T cells permeated from the tumor tissue” value is “more toxic CD8 T cells”. In series [2] (mice receiving tumor treatment), the “Index for tumor-derived immunosuppressive T cells (T reg: CD4+, CD25+, Foxp3+)” value is reported as “decreased”.

For the molecule `COCCOCC(=O)NCCCC[C@H](NC(=O)COCCOC)C(=O)N[C@H](C)C(=O)N[C@H](C)C(=O)N[C@H](CC(N)=O)C(=O)Nc1ccc(COC(=O)OC(C(=O)OC2C[C@@]3(O)[C@@H](OC(=O)c4ccccc4)[C@H]4[C@](C)(C(=O)[C@H](O)C(=C2C)C3(C)C)[C@@H](O)CC2OC[C@]24OC(C)=O)[C@@H](NC(=O)OC(C)(C)C)c2ccccc2)cc1` (stereo partly shown) [Compound B1], the “activation efficiency (%)” value in the series with MDA-MB231 tumor tissue (Table 35, water-soluble Docetaxel series and controls) amounted to 93.4%.
